Results from patent publication US12371454B2, “Cyclic peptide compound having Kras inhibitory action” (priority 2019, dated 2025).
Starred links: 1 amine or outer side, 2 acyl side, 3 side chain; linkers in the order of their positions; H or OH if unused. Positions of bridges follow the written chain, without caps; N, C: chain ends. Non-standard residues stand in square brackets, D forms with d. Residues, ends and D or L forms follow the SMILES beside them. *: point of attachment. hPhe(3,5-F2-4-CF3) = N[C@@H](CCc1cc(F)c(C(F)(F)F)c(F)c1)C(=O)O; hPhe(3-Cl-4-CF3) = N[C@@H](CCc1ccc(C(F)(F)F)c(Cl)c1)C(=O)O; hPhe(3-F,4-CF3) = N[C@@H](CCc1ccc(C(F)(F)F)c(F)c1)C(=O)O; NMePhe(3-CF3) = CN[C@@H](Cc1cccc(C(F)(F)F)c1)C(=O)O; NMePhe(4-CF3) = CN[C@@H](Cc1ccc(C(F)(F)F)cc1)C(=O)O; hPhe(4-CF3) = N[C@@H](CCc1ccc(C(F)(F)F)cc1)C(=O)O; NMePhe(4-Cl) = CN[C@@H](Cc1ccc(Cl)cc1)C(=O)O; NMePhe(4-Me) = CN[C@@H](Cc1ccc(C)cc1)C(=O)O; NMedβ3hAla = C[C@H](CC(=O)[*:2])N(C)[*:1]; NMeGly(cPent) = CN[C@H](C(=O)O)C1CCCC1; Phe(3-I) = N[C@@H](Cc1cccc(I)c1)C(=O)O; Pro(4,4-F2) = O=C(O)[C@@H]1CC(F)(F)CN1; NMeCha = CN[C@@H](CC1CCCCC1)C(=O)O; NMeChg = CN[C@H](C(=O)O)C1CCCCC1; NMeI = CC[C@H](C)[C@H](NC)C(=O)O; dNMeF = CN[C@H](Cc1ccccc1)C(=O)O; NMeD = CN[C@@H](CC(=O)O)C(=O)O; NMeL = CN[C@@H](CC(C)C)C(=O)O; NMeNva = CCC[C@H](NC)C(=O)O; NMeV = CN[C@H](C(=O)O)C(C)C; d(β3hA) = C[C@@H](N)CC(=O)O; Pip = O=C(O)[C@@H]1CCCCN1; NMeA = CN[C@@H](C)C(=O)O; NMeAib = CNC(C)(C)C(=O)O; Nle = CCCC[C@H](N)C(=O)O; Piperidide = C1CCN(*)CC1; Pyrrolidide = C1CCN(*)C1; Ac5c = NC1(C(=O)O)CCCC1; Aze = O=C(O)[C@@H]1CCN1; Ac4c = NC1(C(=O)O)CCC1; Sar = CNCC(=O)O

target: T1, Kras and SOS1 (biotin-tagged human Kras loaded with GDP, His-tagged human SOS1) (Homo sapiens, UniProt P01116, G12D); assay: Protein-protein interaction inhibition between Kras and SOS1 (KrasGl2D-SOS PPI) using AlphaScreen; type: binding; conditions: AlphaScreen; biotin-tagged human Kras loaded with GDP, His-tagged human SOS1; read-out: KRAS G12D-SOS PPI IC50
T1 construct: made in house; host or cells: E. coli (stated for Kras only)
How it was run: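 Kras was produced in E. coli, purified, then loaded with GDP. It was paired via streptavidin acceptor beads with His-SOS1 held on nickel donor beads, and proximity signal at 520-620 nm was read after 680 nm illumination.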

T1 sequence (P01116 1-188 isoform P01116-2 G12D): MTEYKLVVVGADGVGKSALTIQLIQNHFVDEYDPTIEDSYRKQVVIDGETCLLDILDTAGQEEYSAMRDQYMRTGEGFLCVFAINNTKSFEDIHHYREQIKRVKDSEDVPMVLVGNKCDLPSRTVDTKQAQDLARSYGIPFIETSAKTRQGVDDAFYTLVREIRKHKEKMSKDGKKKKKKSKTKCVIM

Row | Structure (SMILES) | IC50 [µM]
1 | CC[C@H](C)[C@@H]1NC(=O)[C@H](CC(C)C)N(C)C(=O)C[C@@H](C(=O)N(C)C)N(C)C(=O)[C@H]([C@@H](C)CC)N(C)C(=O)C2(CCCC2)NC(=O)[C@@H](Cc2ccccc2)N(C)C(=O)[C@H](CCc2ccc(C(F)(F)F)c(Cl)c2)NC(=O)CN(C)C(=O)[C@H](Cc2ccc(C)cc2)N(C)C(=O)[C@@H]2CCN2C(=O)[C@H](C)N(C)C1=O [Compound 1909] ([NMeL]I[NMeA][Aze][NMePhe(4-Me)][Sar][hPhe(3-Cl-4-CF3)][dNMeF][Ac5c][NMeI][NMeD]-NMe2; lactam N-11) | 0.11
2 | CC[C@H](C)[C@@H]1NC(=O)[C@@H]2CCCCN2C(=O)C[C@@H](C)NC(=O)[C@H](CC(C)C)N(C)C(=O)C2(CCCC2)NC(=O)[C@@H]2CCCN2C(=O)[C@H](CCc2ccc(C(F)(F)F)cc2)NC(=O)CN(C)C(=O)[C@H](CC2CCCCC2)N(C)C(=O)CN(C)C(=O)CN(C)C1=O [Compound 1097] (cyclo([Ac5c][NMeL][d(β3hA)][Pip]I[Sar][Sar][NMeCha][Sar][hPhe(4-CF3)]P)) | 0.23
3 | CC[C@H](C)[C@@H]1NC(=O)[C@H](CC(C)C)N(C)C(=O)C[C@@H](C(=O)N2CCCCC2)N(C)C(=O)[C@H](CC(C)C)NC(=O)C(C)(C)N(C)C(=O)[C@H](Cc2ccc(OC)cc2)NC(=O)[C@H](Cc2cccc(I)c2)NC(=O)CN(C)C(=O)[C@H](Cc2ccc(C)cc2)N(C)C(=O)[C@@H]2CCN2C(=O)CN(C)C1=O [Compound 188] ([NMeL]I[Sar][Aze][NMePhe(4-Me)][Sar][Phe(3-I)]Y(Me)[NMeAib]L[NMeD]-Piperidide; lactam N-11) | 0.0061
4 | CC[C@H](C)[C@@H]1NC(=O)[C@H](CC(C)C)N(C)C(=O)C[C@@H](C)NC(=O)[C@H](C(C)C)N(C)C(=O)C2(CCCC2)NC(=O)[C@@H]2CCCN2C(=O)[C@H](CCc2ccc(C(F)(F)F)c(F)c2)NC(=O)CN(C)C(=O)[C@H](CC2CCCCC2)N(C)C(=O)CN(C)C(=O)CN(C)C1=O [Compound 1534] (cyclo([Ac5c][NMeV][d(β3hA)][NMeL]I[Sar][Sar][NMeCha][Sar][hPhe(3-F,4-CF3)]P)) | 0.062
5 | CC[C@H](C)[C@@H]1NC(=O)[C@H](CC(C)C)N(C)C(=O)C[C@@H](C)N(C)C(=O)[C@H](C2CCCC2)N(C)C(=O)C2(CCCC2)NC(=O)[C@@H]2CC(F)(F)CN2C(=O)[C@H](CCc2ccc(C(F)(F)F)c(Cl)c2)NC(=O)CN(C)C(=O)[C@H](CC2CCCCC2)N(C)C(=O)CN(C)C(=O)CN(C)C1=O [Compound 107] (cyclo([Ac5c][NMeGly(cPent)][NMedβ3hAla][NMeL]I[Sar][Sar][NMeCha][Sar][hPhe(3-Cl-4-CF3)][Pro(4,4-F2)])) | 0.004
6 | CC[C@H](C)[C@@H]1NC(=O)[C@H](C2CCCC2)N(C)C(=O)C[C@@H](C)NC(=O)[C@H](C(C)C)N(C)C(=O)C2(CCCC2)NC(=O)[C@@H]2CCCN2C(=O)[C@H](CCc2ccc(C(F)(F)F)c(Cl)c2)NC(=O)CN(C)C(=O)[C@H](CC2CCCCC2)N(C)C(=O)[C@@H]2CCN2C(=O)[C@H](C)N(C)C1=O [Compound 570] (cyclo([Ac5c][NMeV][d(β3hA)][NMeGly(cPent)]I[NMeA][Aze][NMeCha][Sar][hPhe(3-Cl-4-CF3)]P)) | 0.027
7 | CCCC[C@@H]1NC(=O)[C@H](Cc2cccc(I)c2)NC(=O)CN(C)C(=O)[C@H](Cc2ccc(Cl)cc2)N(C)C(=O)CN(C)C(=O)CN(C)C(=O)[C@H]([C@@H](C)CC)NC(=O)[C@H](CC(C)C)N(C)C(=O)C[C@@H](C(=O)N2CCCCC2)N(C)C(=O)[C@H](CC(C)C)NC(=O)[C@H](Cc2cccc(C(F)(F)F)c2)N(C)C1=O [Compound 1052] ([NMeL]I[Sar][Sar][NMePhe(4-Cl)][Sar][Phe(3-I)][Nle][NMePhe(3-CF3)]L[NMeD]-Piperidide; lactam N-11) | 0.11
8 | CCC[C@H]1C(=O)N[C@@H]([C@@H](C)CC)C(=O)N(C)CC(=O)N(C)CC(=O)N(C)[C@@H](CC2CCCCC2)C(=O)N(C)CC(=O)N[C@@H](CCc2cc(F)c(C(F)(F)F)c(F)c2)C(=O)N2CC(F)(F)C[C@H]2C(=O)NC2(CCCC2)C(=O)N(C)[C@@H](C2CCCCC2)C(=O)N(C)[C@H](C(=O)N2CCCC2)CC(=O)N1C [Compound 1160] ([NMeNva]I[Sar][Sar][NMeCha][Sar][hPhe(3,5-F2-4-CF3)][Pro(4,4-F2)][Ac5c][NMeChg][NMeD]-Pyrrolidide; lactam N-11) | 0.00042
9 | CC[C@H](C)[C@@H]1NC(=O)[C@H](CC(C)C)N(C)C(=O)C[C@@H](C)N(C)C(=O)[C@H](C2CCCCC2)N(C)C(=O)C2(CCC2)NC(=O)[C@@H]2CC(F)(F)CN2C(=O)[C@H](CCc2ccc(C(F)(F)F)c(Cl)c2)NC(=O)CN(C)C(=O)[C@H](Cc2ccc(C(F)(F)F)cc2)N(C)C(=O)CN(C)C(=O)CN(C)C1=O [Compound 750] (cyclo([Ac4c][NMeChg][NMedβ3hAla][NMeL]I[Sar][Sar][NMePhe(4-CF3)][Sar][hPhe(3-Cl-4-CF3)][Pro(4,4-F2)])) | 0.028
